According to the supplement of paper PMC10307832:

Columns and labels:
Assay in all cases: relative viability (nuclei count vs DMSO), 5 days (fraction); higher = more cells survive
[1] = compound: COc1cc2nccc(Oc3ccc(NC(=O)C4(C(=O)Nc5ccc(F)cc5)CC4)cc3)c2cc1OC [Cabozantinib] + CC1(C)CCC(c2ccc(Cl)cc2)=C(CN2CCN(c3ccc(C(=O)NS(=O)(=O)c4ccc(N[C@H](CCN5CCOCC5)CSc5ccccc5)c(S(=O)(=O)C(F)(F)F)c4)cc3)CC2)C1 [Navitoclax] (partner 0.5 µM)
Outline: (§1)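 One day after seeding in 1536-well plates, lung cancer cell lines were dosed by pin tool. Dosing was either single-drug or a fixed anchor-drug dose plus five library-drug doses (not always all listed) in √10 steps. After 5 days, nuclei were stained in one fix-and-stain step and counted on 4× images, and relative viability is the nuclei count of treated wells over that of vehicle wells, given as the median of duplicate plates.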

Zosuquidar + Lapatinib = compound: O[C@@H](COc1cccc2ncccc12)CN1CCN([C@@H]2c3ccccc3[C@@H]3[C@H](c4ccccc42)C3(F)F)CC1 [Zosuquidar] + CS(=O)(=O)CCNCc1ccc(-c2ccc3ncnc(Nc4ccc(OCc5cccc(F)c5)c(Cl)c4)c3c2)o1 [Lapatinib] (partner 2 µM)
Outline: as §1

Cabozantinib + Foretinib = compound: COc1cc2nccc(Oc3ccc(NC(=O)C4(C(=O)Nc5ccc(F)cc5)CC4)cc3)c2cc1OC [Cabozantinib] + COc1cc2c(Oc3ccc(NC(=O)C4(C(=O)Nc5ccc(F)cc5)CC4)cc3F)ccnc2cc1OCCCN1CCOCC1 [Foretinib] (partner 0.25 µM)
Outline: as §1

Kobe2602 + Foretinib = compound: C1=CC(=CC=C1NC(=S)NNC2=C(C=C(C=C2[N+](=O)[O-])C(F)(F)F)[N+](=O)[O-])F [Kobe2602] + COc1cc2c(Oc3ccc(NC(=O)C4(C(=O)Nc5ccc(F)cc5)CC4)cc3F)ccnc2cc1OCCCN1CCOCC1 [Foretinib] (partner 0.25 µM)
Outline: as §1

UMC-11
relative viability ([1]; first compound 0.02 µM): 0.298 | relative viability ([1]; first compound 0.06325 µM): 0.332 | relative viability ([1]; first compound 0.2 µM): 0.34 | relative viability ([1]; first compound 0.6325 µM): 0.329 | relative viability ([1]; first compound 2 µM): 0.297 | relative viability (Zosuquidar + Lapatinib; first compound 0.01 µM): 0.895 | relative viability (Zosuquidar + Lapatinib; first compound 0.03162 µM): 1.07 | relative viability (Zosuquidar + Lapatinib; first compound 0.1 µM): 0.89 | relative viability (Zosuquidar + Lapatinib; first compound 0.3162 µM): 1.14 | relative viability (Zosuquidar + Lapatinib; first compound 1 µM): 0.96 | relative viability (Cabozantinib + Foretinib; first compound 0.02 µM): 0.959 | relative viability (Cabozantinib + Foretinib; first compound 0.06325 µM): 1.21 | relative viability (Cabozantinib + Foretinib; first compound 0.2 µM): 1.01 | relative viability (Cabozantinib + Foretinib; first compound 0.6325 µM): 1.03 | relative viability (Cabozantinib + Foretinib; first compound 2 µM): 0.942 | relative viability (Kobe2602 + Foretinib; first compound 0.2 µM): 1.03 | relative viability (Kobe2602 + Foretinib; first compound 0.6325 µM): 0.957 | relative viability (Kobe2602 + Foretinib; first compound 2 µM): 0.96 | relative viability (Kobe2602 + Foretinib; first compound 6.325 µM): 0.953 | relative viability (Kobe2602 + Foretinib; first compound 20 µM): 1.08
